This is an account of results in paper PMC8362065, “Easily Available, Amphiphilic Diiron Cyclopentadienyl Complexes Exhibit in Vitro Anticancer Activity in 2D and 3D Human Cancer Cells through Redox Modulation Triggered by CO Release” (Chemistry (Weinheim an Der Bergstrasse, Germany), 2021).

pIC50: −log10 of the molar value. Marks after values point to notes of the source that are not given here.

Data set [1] in a line: Carbon monoxide release in 5 % MeOH aqueous solution, headspace GC-TCD. In kind it is physicochemical. The note with it: 37 °C; for eq. CO released: eqCO = nCO/nFe; for % residual complex: 48 h, calculated as [1 – Σ(eqCO)/3]∙100. As for the experimental part:
Carbon monoxide release. A stock solution was prepared by dissolving the selected Fe compound (ca. 10 mg) in MeOH (0.50 mL) then diluting with H2O up to 10.0 mL total volume (5 % v/v MeOH). Next, 3.20 mL of the solution (n Fe ca. 6 ⋅ 10^−3 mmol) and a 7x2 mm stir bar were transferred into a 4‐mL screw top vial (1.72 mL neat gas phase volume). The mixture was sealed with a screw cap with a PTFE/silicone septum and heated at 37 °C for 24 h under stirring. Afterwards, the headspace was sampled with a gas tight microsyringe ([…]) and analysed by GC‐TCD. Therefore, the vial was vented, sealed and heated for further 24 h, and GC‐TCD analysis was repeated. The amount of released CO (νCO, mmol) was calculated based on a calibration curve obtained from analyses of known air/CO mixtures (1–10 % v/v), and the number of equivalents released over a 24 h period refers to the initial amount of compound (eqCO=n CO/n Fe). The residual amount of starting diiron complex after 48 h was calculated by assuming the release of 3 equivalents of CO per mole and the total amount of CO released.

Data set [2] concerns the target T1, Lysozyme from chicken egg white (Gallus gallus, UniProt P00698).
T1 construct: Lysozyme from chicken egg white (M=14 300 Da, 62971 Sigma‐Aldrich); purchased Sigma-Aldrich 62971; host or cells: chicken egg white (natural source)
Put plainly: Reactivity with model protein lysozyme, ESI-MS. Particulars: 37 °C; for Reaction with lysozyme: compound/lysozyme 2 : 1, 24 h; for % Lysozyme methylation (alkylation): lysozyme:compound 1 : 2 molar ratio, 24 h, flow injection ESI-MS peak integrals. How it is done: To gain insights into the reactivity of the diiron compounds with possible biomolecular targets, we selected lysozyme, a small model protein often used to test interactions with metal compounds.[36] Following 24 h incubation at 37 °C, diiron compounds/lysozyme solutions (2 : 1 molar ratio) in ammonium acetate were filtered and analysed by ESI‐MS. In all cases, the original organometallic cation was identified as the major Fe‐containing compound in solution (Figures S33‐S40). Concerning the protein scaffold, the only identified adduct from the interaction with [2–3]^+ was the methylated derivative, which was also checked by HPLC separation (Figure S41). The expected diiron counterparts, that is, 1A–H, could not be detected possibly due to their water insolubility. The [lysozyme+Me^+] to [lysozyme] ratios, calculated on extracted ion chromatograms after protein peak reconstruction, are reported in Table 4. […] Methylation is a common post‐translational modification of protein/enzymes (methyltransferase enzymes) but it has also been observed as a result of the interaction of proteins with various electrophiles.[37]
Lysozyme from chicken egg white (M=14 300 Da, 62971 Sigma‐Aldrich) was stored at 4 °C as received. A stock solution was prepared by dissolving the powder protein (125 μM) and NH4OAc (1.25×10^−2 M)[56] in HPLC water and was immediately used. Stock solutions of diiron complexes (c Fe2 =1×10^−3 M) were prepared by dissolving the selected compound in DMSO (0.25 mL) or MeOH (0.7 mL; used only for [4G]BF4), then diluting with HPLC water up to 5.0 mL total volume. Next, aliquots of the Fe (0.50 mL) and lysozyme (2.0 mL) stock solutions were mixed and the final solution (Fe2 200 μM, lysozyme 100 μM, NH4OAc 10 mM; 1 % DMSO) was kept at 37 °C for 24 h. The resulting suspensions were centrifuged (RCF 805, 5 min; Hettich EBA 8G) to separate the orange‐brown precipitate. A blank solution (lysozyme only) was prepared and treated by the same procedure. Next, samples were diluted 1 : 20 (v/v) with a water/MeCN (1 : 1, v/v) solution containing 1 % formic acid and analysed by HPLC‐MS and flow injection MS. For HPLC analyses, elution was conducted with a MeCN/water linear gradient (90 : 10 to 5 : 95 v/v over 60 min), containing 0.05 % trifluoroacetic acid. The following compounds were identified by their MS pattern: [2A]^+ (t R=18.0 min), [2B]^+ (t R=13.8 min), [2C]^+ (t R=18.8 min), [2D]^+ (t R=17.0 min), [2E]^+ (t R=18.3 min), [2F]^+ (t R=9.7 min), [3F]^+ (t R=13.1 min), [4G]^+ (t R=23.0 min), [5H]^+ (t R=24.3 min), lysozyme‐CH3 (t R=21.0 min), lysozyme (t R=21.6 min). In all cases, the starting organometallic cation was identified as the major Fe‐containing compound in solution. Protein peaks pattern were obtained following peak reconstruction. Peak integrals for lysozyme and methyl lysozyme were calculated from the extracted ion chromatograms from the flow injection MS analysis (Table 4).

For data set [3], the system named is human cancer cell line panel (2008, HCT‐15, PSN‐1, MCF‐7, A375). Put plainly: MTT assay, average over the human cancer cell line panel. The format is cell-based. Particulars: average over tested cancer cell lines, 72 h. As for the experimental part:
The diiron complexes [2A]^+, [2C–E]^+, [3F–G]^+, [5H]^+ (as CF3SO3 salts) and [2B]^+, [4G]^+ (as BF4 salts) were tested for their cytotoxic potential by means of the MTT assay, as reported in the Experimental Section. The most convenient counter anion in terms of preparation and handling/storage was chosen in each case; in particular, [2C]CF3SO3 was included in the study, while [2C]Cl was excluded, being highly moisture sensitive and thus affecting the accuracy of the weighting operation. The in‐house human cancer cell line panel contains examples of ovarian (2008), colon (HCT‐15), pancreatic (PSN‐1), and breast (MCF‐7) cancers as well as of melanoma (A375). Cisplatin was used as a reference and tested under the same experimental conditions. In addition, the cytotoxicity was also evaluated for shorter time of exposure (24 h) towards PSN‐1 cancer cells (Table S5).
MTT assay. The growth inhibitory effect towards tumour cells was evaluated by means of MTT assay as previously described.[57] Briefly, 3–8×10^3 cells/well, dependent upon the growth characteristics of the cell line, were seeded in 96‐well microplates in growth medium (100 μL). After 24 h, the medium was removed and replaced with a fresh one containing the compound to be studied at the appropriate concentration. Triplicate cultures were established for each treatment. After 24 or 72 h, each well was treated with 10 μL of a 5 mg/mL MTT saline solution, and following 5 h of incubation, 100 μL of a sodium dodecyl sulfate (SDS) solution in HCl 0.01 M were added. After an overnight incubation, cell growth inhibition was detected by measuring the absorbance of each well at 570 nm using a Bio‐Rad 680 microplate reader. Mean absorbance for each drug dose was expressed as a percentage of the control untreated well absorbance and plotted against drug concentration. IC50 values, the drug concentrations that reduce the mean absorbance at 570 nm to 50 % of those in the untreated control wells, were calculated by the four‐parameter logistic (4‐PL) model. Evaluation was based on means from at least four independent experiments.
Background: Tetrazolium dyes change colour on reduction, which living cells bring about.

T1 sequence (P00698 19-147): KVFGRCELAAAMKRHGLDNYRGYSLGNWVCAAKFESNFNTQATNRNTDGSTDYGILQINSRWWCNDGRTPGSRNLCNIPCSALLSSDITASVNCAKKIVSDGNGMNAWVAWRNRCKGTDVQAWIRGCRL

On to “[Fe2Cp2(CO)2(μ‐CO){μ‐CNBn2}]X [[5H]CF3SO3]”, for which, in data set [1] (0-24 h), the “eq. CO released” value was found to be 0.29 ± 0.06 eq. In addition, in data set [1] (24-48 h), the “eq. CO released” value is listed as 0.27 ± 0.02 eq. Also, the “% residual complex” value in data set [1] is 80-84%. In data set [2], the Reaction with lysozyme entry is “did not react with lysozyme” and the “% Lysozyme methylation (alkylation)” value worked out at 0 %^[b].
Take “[Fe2Cp2(CO)2(μ‐CO){μ‐CNEt(2‐naphthyl)}]BF4 [[4G]BF4]”: in data set [2], the Reaction with lysozyme entry is given as “did not react with lysozyme” and the “% Lysozyme methylation (alkylation)” value is 0 %^[b].
For the substance “[Fe2Cp2(CO)2(μ‐CO){μ‐CNMe(1H‐indol‐6‐yl)}]CF3SO3 [[2A]CF3SO3]”, the “% Lysozyme methylation (alkylation)” value in data set [2] worked out at 45%.
Usually pIC50 stands for the IC50 on a negative log10 scale, so that one unit is a factor of ten. Read a low pIC50 as a large IC50. In the case of “[Fe2Cp2(CO)2(μ‐CO){μ‐CNMe(4‐C6H4OMe)}]CF3SO3 [[2D]CF3SO3]”, the “% Lysozyme methylation (alkylation)” value in data set [2] was determined as 31%. Besides, in data set [3], the pIC50 was 4.78.
Turning to “[Fe2Cp2(CO)2(μ‐CO){μ‐CNMe(C6H11)}]X [[2C]CF3SO3]”, the “eq. CO released” value in data set [1] (0-24 h) is reported as 0.25 ± 0.02 eq; in data set [1] (24-48 h), 0.23 ± 0.04 eq. The “% residual complex” value in data set [1] is reported as 83-86%. The “% Lysozyme methylation (alkylation)” value in data set [2] worked out at 50%. Besides, the pIC50 in data set [3] was 4.76.
On the same counts, the results for “[Fe2Cp2(CO)2(μ‐CO){μ‐CNMe(CH2CHCH2)}]X [[3F]CF3SO3]” are 0.22 ± 0.06 eq, 0.15 ± 0.01 eq, 87-88%, 47% and under 4.00.
On to “[Fe2Cp2(CO)2(μ‐CO){μ‐CNMe(CH2PO3Et2)}]X [[2B]BF4]”, for which, in data set [2], the “% Lysozyme methylation (alkylation)” value stood at 49%. For the same substance, in data set [3], the pIC50 is under 4.00.
